The source made the active and inactive calls. The calls are words filed in the database; no cut-off is given here.
Experiments:
[1] = tested on: HepG2; assay: Induction of LDL uptake in human HepG2 cells at 5 uM incubated for 24 hrs by microplate reader analysis; type: functional, cell-based
[2] = tested on: HepG2; assay: Inhibition of LXR activity in human HepG2 cells assessed as downregulation of SREBP-1c level at 5 uM incubated for 24 hrs by Q-PCR analysis; type: cell-based
[3] = tested on: HepG2; assay: Inhibition of LXR activity in human HepG2 cells assessed as downregulation of ABCA1 level at 5 uM incubated for 24 hrs by Q-PCR analysis; type: cell-based
[4] = tested on: HepG2; assay: Downregulation of IDOL mRNA level in human HepG2 cells at 5 uM incubated for 24 hrs by Q-PCR analysis; type: functional, cell-based
[5] = tested on: HepG2; assay: Downregulation of LXRalpha protein level in nucleus of human HepG2 at 5 uM incubated for 24 hrs by Western blot analysis; type: functional, cell-based
[6] = Downregulation of IDOL protein level in human HepG2 cells at 5 uM incubated for 24 hrs by Western blot analysis relative to control; type: functional
[7] = Upregulation of LDLR protein level in human HepG2 cells at 5 uM incubated for 24 hrs by Western blot analysis relative to control; type: functional
[8] = tested on: HepG2; assay: Upregulation of LDLR protein level in human HepG2 cells at 5 uM incubated for 24 hrs by Western blot analysis; type: functional, cell-based
[9] = tested on: Syrian golden hamster; assay: Hypolipidemic activity in high fat diet induced Syrian golden hamster assessed as decrease in triglyceride level at 30 mg/kg,ip administered once daily for 21 days by automatic biochemical analyzer; type: functional, organism-based; conditions: Mesocricetus auratus, time 21.0 day
[10] = tested on: Syrian golden hamster; assay: Hypolipidemic activity in high fat diet induced Syrian golden hamster assessed as decrease in low-density lipoprotein cholesterol level at 30 mg/kg,ip administered once daily for 21 days by automatic biochemical analyzer; type: functional, organism-based; conditions: Mesocricetus auratus, time 21.0 day
[11] = tested on: Syrian golden hamster; assay: Hypolipidemic activity in high fat diet induced Syrian golden hamster assessed as decrease in total cholesterol level at 30 mg/kg,ip administered once daily for 21 days by automatic biochemical analyzer; type: functional, organism-based; conditions: Mesocricetus auratus, time 21.0 day

With O=c1cc2c(c(-c3cc4ccccc4o3)o1)CCCC2 the Activity [1] was “Active”.
For O=c1cc2c(c(-c3ccc(-c4cccs4)s3)o1)CCCC2, the Activity [1] was “Active”.
In the case of O=c1cc2c(c(-c3cccs3)o1)CCCC2, the inhibition [2] is reported as “Active”, the Activity [1] is reported as “Active” and the inhibition [3] is reported as “Active”. For the same compound, the Activity [4] was “Active”, the Activity [5] was “Active” and the Activity [6] was 42%. It also gave an Activity [7] of 238%.
In the case of O=c1oc(-c2cccs2)c2c3c1c1ccccc1n3CCC2, the Activity [1] is reported as “Active”.
In the case of O=c1cc2c(c(-c3cc4ccccc4s3)o1)CCCC2, the Activity [1] is reported as “Active”.
For COc1ccccc1-c1oc(=O)cc2c1CCCC2, the Activity [1] was “Active” and the Activity [8] was “inactive”.
For O=c1oc(-c2ccccc2)c2c3c1c1ccccc1n3CCC2, the inhibition [2] was “Active”, the Activity [1] was “Active” and the Activity [9] was “Active”. For the same compound, the Activity [10] was “Active”, the inhibition [3] was “Active” and the Activity [4] was “Active”. For the same compound, the Activity [5] was “Active”, the Activity [6] was 28% and the Activity [7] was 160%. For the same compound, the Activity [11] was “Active”.
With O=c1cc2c(c(-c3ccc(-c4ccccc4)s3)o1)CCCC2 the Activity [1] was “Active”.

Reference: ChEMBL document CHEMBL5247639, “Fused-ring α-pyrones from intramolecular C-H activation and their lipids-lowering activity associated with LXR-IDOL-LDLR axis regulation” (2022)
